Experimental data reported in PubChem BioAssay AID2060512 (Molecular Pharmacology Branch, DTP, NCI, 2025).

Test system: 186277-243-T-J2-PDC complex spheroid viability
Experiment: Anticancer human tumor 186277-243-T-J2-PDC patient-derived colon adenocarcinoma cell line growth inhibition [GQUAD]
Details: for IC50: curve of first compound; for viability, T/C: stronger effect = lower value
Outline: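 Multi-cell-type spheroids of tumor cells with HUVEC and mesenchymal stem cells, treated with drug combinations. Concentrations descend in half-log steps from near clinical Cmax, or from 10 microM where Cmax is unknown; viability read-out.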
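Note: spheroids exposed to drugs for 7 days.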
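Throughout, for viability, T/C: 100% = DMSO vehicle control viability.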

## CCc1c2c(nc3ccc(O)cc13)-c1cc3c(c(=O)n1C2)COC(=O)[C@]3(O)CC + Cc1[nH]c2ccc(F)cc2c1-c1nc2c3cccnc3c3ncccc3c2[nH]1
Second compound 0.0316 µM
  IC50: 13 nM
Second compound 0.1 µM
  IC50: 13.1 nM
Second compound 0.316 µM
  IC50: 10.3 nM
Second compound 1 µM
  IC50: 11.3 nM
Second compound 3.16 µM
  IC50: 7.39 nM
Second compound 10 µM
  IC50: 15.7 nM
Second compound 0.0316 µM, first compound 0.000999 µM
  viability, T/C: 99.6%
Second compound 0.0316 µM, first compound 0.00316 µM
  viability, T/C: 71.6%
Second compound 0.0316 µM, first compound 0.00999 µM
  viability, T/C: 62.5%
Second compound 0.0316 µM, first compound 0.0316 µM
  viability, T/C: 29.9%
Second compound 0.0316 µM, first compound 0.0999 µM
  viability, T/C: 25.1%
Second compound 0.0316 µM, first compound 0.316 µM
  viability, T/C: 21.1%
Second compound 0.1 µM, first compound 0.000999 µM
  viability, T/C: 115%
Second compound 0.1 µM, first compound 0.00316 µM
  viability, T/C: 94.5%
Second compound 0.1 µM, first compound 0.00999 µM
  viability, T/C: 52.4%
Second compound 0.1 µM, first compound 0.0316 µM
  viability, T/C: 36.5%
Second compound 0.1 µM, first compound 0.0999 µM
  viability, T/C: 21.4%
Second compound 0.1 µM, first compound 0.316 µM
  viability, T/C: 22%
Second compound 0.316 µM, first compound 0.000999 µM
  viability, T/C: 105%
Second compound 0.316 µM, first compound 0.00316 µM
  viability, T/C: 70.1%
Second compound 0.316 µM, first compound 0.00999 µM
  viability, T/C: 54.2%
Second compound 0.316 µM, first compound 0.0316 µM
  viability, T/C: 33.9%
Second compound 0.316 µM, first compound 0.0999 µM
  viability, T/C: 23.7%
Second compound 0.316 µM, first compound 0.316 µM
  viability, T/C: 19.8%
Second compound 1 µM, first compound 0.000999 µM
  viability, T/C: 91.5%
Second compound 1 µM, first compound 0.00316 µM
  viability, T/C: 73.2%
Second compound 1 µM, first compound 0.00999 µM
  viability, T/C: 49.9%
Second compound 1 µM, first compound 0.0316 µM
  viability, T/C: 37.4%
Second compound 1 µM, first compound 0.0999 µM
  viability, T/C: 25%
Second compound 1 µM, first compound 0.316 µM
  viability, T/C: 20.7%
Second compound 3.16 µM, first compound 0.000999 µM
  viability, T/C: 85.9%
Second compound 3.16 µM, first compound 0.00316 µM
  viability, T/C: 63.5%
Second compound 3.16 µM, first compound 0.00999 µM
  viability, T/C: 45.6%
Second compound 3.16 µM, first compound 0.0316 µM
  viability, T/C: 31%
Second compound 3.16 µM, first compound 0.0999 µM
  viability, T/C: 26.4%
Second compound 3.16 µM, first compound 0.316 µM
  viability, T/C: 18.7%
Second compound 10 µM, first compound 0.000999 µM
  viability, T/C: 77.2%
Second compound 10 µM, first compound 0.00316 µM
  viability, T/C: 72.2%
Second compound 10 µM, first compound 0.00999 µM
  viability, T/C: 58.8%
Second compound 10 µM, first compound 0.0316 µM
  viability, T/C: 36.8%
Second compound 10 µM, first compound 0.0999 µM
  viability, T/C: 24.1%
Second compound 10 µM, first compound 0.316 µM
  viability, T/C: 23.3%
